In patent publication US7575640B2, “Method for producing sugar and sugar-containing products from sugar-containing plant raw materials” (Zuckerforschung Tulln Gesellschaft m.b.H., priority 2003, dated 2009):
Converted amounts (≈) assume the structure as drawn. Where two headings read alike, the source gives them in different places.

Columns and labels:
mesophilic mixed culture = experiment: pH drop in mixed culture incubated at 35° C.; assay type: cell-based
Procedure: (§1) A liquid culture medium, as commonly used in microbiology and consisting of 10 g of Bacto-peptone, 5 g of meat extract, 5 g of yeast extract, 1 g of glucose, 1 g of K2HPO4, 0.1 g of MgSO4*7H2O and 0.01 g of FeSO4*7H2O per liter of distilled water, is sterilized in conventional manner for 20 min at 120° C. and inoculated, in a vessel kept at a temperature of 65° C., with 20 ml of crude juice from a large-scale sugar beet extraction, wherein the pH is registered on a recorder. Upon the growth of thermophilic bacteria, the pH drops progressively. This indicates a microorganism-caused acid formation.
A mixed culture according to Example 1 is prepared, yet incubated at 35° C. A pH drop starting after 5 hours cannot be stopped by 11 successive additions of 1 ml of a 1% alcoholic solution of myristic acid per liter culture, corresponding to 110 mg/l, and a further addition of 4 ml, i.e. in sum 150 mg/l.

thermophilic bacteria [1] = experiment: determination of MIC by stepwise addition until stabilization of the pH, 65° C.; assay type: cell-based, thermophilic bacteria (mixed culture)
Procedure: To illustrate the antimicrobial activity within the scope of sugar production, examples are carried out with […] compounds by way of example. […] Upon the growth of thermophilic bacteria, the pH drops progressively. This indicates a microorganism-caused acid formation. […] The fatty acid compounds used in this Example are myristic acid and lauric acid, and their potassium salts, respectively. In this case, the acids were used both individually and in a 1:1 mixture, the salts were exclusively used in a 1:1 mixture.

[2] = system: pure culture strain DSMZ 457; experiment: pH drop in liquid culture medium inoculated with pure culture strain; assay type: cell-based
Procedure: as §1
A liquid culture medium, as in Example 1, is inoculated with a pure culture strain DSMZ 457 of the Deutsche Sammlung für Mikroorganismen und Zellkulturen GmbH. A pH drop starting after 1 hour can be stopped by two additions of 0.2 ml of a 1% alcoholic solution of myristic acid (C14), corresponding to a concentration of merely 4 mg/l. After 4 hours, a renewed pH drop starts which can be stopped for further 7 hours by a further addition of 2 mg/l, i.e. in sum 6 mg/l.

yeasts = experiment: efficacy relative to yeasts; assay type: cell-based; details: compared with thermophilic bacteria
thermophilic bacteria [3] = experiment: pH drop (acid formation) in liquid culture medium inoculated with crude juice from sugar beet extraction, 65° C.; assay type: cell-based, thermophilic bacteria (mixed culture); details: 65° C.; for pH / ΔpH/h: 10 mg/l added at pH 6.47 (5.10 h)
Procedure: If a sugar-containing substrate, e.g. a sugar-containing liquid culture medium, as it is common in microbiology, is either non-sterilized or incubated after inoculation with a bacterial strain, an acid formation will occur which is the easiest to recognize by a drop in the pH. The same phenomenon will occur when incubating normal sugar-containing plant juices, e.g. beet juice. In an industrial process, e.g. in the recovery of sugar juice from sugar beets, a drop in the pH by degradation of sugar means a loss of sugar and a need for an alkalizing agent. Moreover, a drop in the pH with an increase in the germ content in the substrate often is associated with an unpleasant gas and nitrite formation.
as §1
A mixed culture according to Example 1 is prepared.

[4] = Time 6.25 h, 11×10 and 1×40 mg/l being added between pH 6.55 and 6.30
[5] = Time 6.50 h, 11×10 and 1×40 mg/l added between pH 6.55 and 6.30
[6] = Time 4.50 h, 2×2 mg/l added between pH 6.81 and 6.51

CCCCCCCCCCCCCC(=O)O [myristic acid]
pH (mesophilic mixed culture; [4]): 6.41 | ΔpH/h (mesophilic mixed culture; [4]): 0.56 | pH (mesophilic mixed culture; [5]): 6.30 | ΔpH/h (mesophilic mixed culture; [5]): 0.44 | pH (mesophilic mixed culture; Time 6.75 h, in sum 150 mg/l): 6.19 | ΔpH/h (mesophilic mixed culture; Time 6.75 h, in sum 150 mg/l): 0.44 | pH (mesophilic mixed culture; Time 7.00 h, in sum 150 mg/l): 6.06 | ΔpH/h (mesophilic mixed culture; Time 7.00 h, in sum 150 mg/l): 0.52 | pH (mesophilic mixed culture; Time 7.25 h, in sum 150 mg/l): 5.94 | ΔpH/h (mesophilic mixed culture; Time 7.25 h, in sum 150 mg/l): 0.48 | concentration that stops the pH drop (mesophilic mixed culture; pH drop cannot be stopped): > 150 mg/l | MIC (thermophilic bacteria [1]; dissolved in ethanol, 10 mg/l steps, maximum 150 mg/l, 65° C., read-out: Min. Inhibitory Conc. (MIC)): 10 µg/mL (≈ 43.8 µM) | MIC (thermophilic bacteria [1]; dissolved in ethanol, steps of 2 mg/l, read-out: Min. Inhibitory Conc. (MIC)): 6 µg/mL (≈ 26.3 µM) | MIC (thermophilic bacteria [1]; text summary of Example 9, read-out: MIC (concentration successfully used)): 6000 µg/mL (≈ 26300 µM) | time until renewed pH drop ([2]; 4 mg/l): 4 hours | pH [2, 6]: 6.51 | ΔpH/h [2, 6]: 0.60 | pH ([2]; Time 5 h, 4 mg/l): 6.50 | ΔpH/h ([2]; Time 5 h, 4 mg/l): 0.02 | pH ([2]; Time 6 h, 4 mg/l): 6.51 | ΔpH/h ([2]; Time 6 h, 4 mg/l): −0.01 | pH ([2]; Time 7 h, 4 mg/l): 6.51 | ΔpH/h ([2]; Time 7 h, 4 mg/l): 0.00 | pH ([2]; Time 8 h, 4 mg/l): 6.51 | ΔpH/h ([2]; Time 8 h, 4 mg/l): 0.00 | pH ([2]; Time 9 h, 4 mg/l): 6.48 | ΔpH/h ([2]; Time 9 h, 4 mg/l): 0.03 | ΔpH/h ([2]; Time 10.2 h, 4 mg/l, further 2 mg/l added at pH 6.39): 0.08 | pH ([2]; Time 10.2 h, 4 mg/l, further 2 mg/l added at this pH): 6.39 | pH ([2]; Time 11 h, in sum 6 mg/l): 6.39 | ΔpH/h ([2]; Time 11 h, in sum 6 mg/l): 0.00 | pH ([2]; Time 12 h, in sum 6 mg/l): 6.39 | ΔpH/h ([2]; Time 12 h, in sum 6 mg/l): 0.00 | pH ([2]; Time 13 h, in sum 6 mg/l): 6.39 | ΔpH/h ([2]; Time 13 h, in sum 6 mg/l): 0.00 | pH ([2]; Time 14 h, in sum 6 mg/l): 6.39 | ΔpH/h ([2]; Time 14 h, in sum 6 mg/l): 0.00 | pH ([2]; Time 15 h, in sum 6 mg/l): 6.39 | ΔpH/h ([2]; Time 15 h, in sum 6 mg/l): 0.00 | further time pH drop stopped ([2]; further 2 mg/l, in sum 6 mg/l): 7 hours | concentration that stops the pH drop ([2]; two additions of 2 mg/l, pure culture): 4 mg/l | efficacy relative to yeasts (yeasts): markedly lower efficacy | duration of effectiveness (pH drop stopped) (thermophilic bacteria [3]; 10 mg/l, mixed culture): at least 14 h | effect on pH drop (thermophilic bacteria [3]; 10 mg/l, mixed culture): suddenly and lastingly stopped | pH (thermophilic bacteria [3]; Time 5.50 h): 6.47 | ΔpH/h (thermophilic bacteria [3]; Time 5.50 h): 0.00 | pH (thermophilic bacteria [3]; Time 6 h): 6.47 | ΔpH/h (thermophilic bacteria [3]; Time 6 h): 0.00 | pH (thermophilic bacteria [3]; Time 7 h): 6.48 | ΔpH/h (thermophilic bacteria [3]; Time 7 h): −0.01 | pH (thermophilic bacteria [3]; Time 10 h): 6.50 | ΔpH/h (thermophilic bacteria [3]; Time 10 h): −0.01 | pH (thermophilic bacteria [3]; Time 13 h): 6.53 | ΔpH/h (thermophilic bacteria [3]; Time 13 h): −0.01 | pH (thermophilic bacteria [3]; Time 16 h): 6.55 | ΔpH/h (thermophilic bacteria [3]; Time 16 h): −0.01 | pH (thermophilic bacteria [3]; Time 19 h): 6.53 | ΔpH/h (thermophilic bacteria [3]; Time 19 h): 0.01
